Laboratory results: patent publication US6114371A, “3-(cyclohexanoheteroarylidenyl)-2-indolinone protein tyrosine kinase inhibitors” (Sugen, Inc., priority 1998, dated 2000)

Experiments:
[1] = target: FAK (Homo sapiens, UniProt Q05397); test: FAK assay; type: biochemical; settings: Table 2
[2] = tested on: HUV-EC-C cells; test: HUV-EC-C assay, VEGF (3H-thymidine incorporation); type: cell-based, human; settings: Table 2, VEGF-stimulated HUV-EC-C, read-out: HUV-EC-C ATCC VEGF IC50
Experimental: (§1) The following protocol may also be used to measure a compound's activity against PDGF-R, FGF-R, VEGF, aFGF or Flk-1/KDR, all of which are naturally expressed by HUV-EC cells.
(§2) 1. […] After cells have detached from the flask, add an equal volume of assay medium and transfer to a 50 mL sterile centrifuge tube (Fisher Scientific; catalogue no. 05-539-6).
(§3) 1. Make up two-fold drug titrations in separate 96-well plates, generally 50 μM on down to 0 μM. Use the same assay medium as mentioned in day 0, step 2 above. Titrations are made by adding 90 μl/well of drug at 200 μM (4×the final well concentration) to the top well of a particular plate column. Since the stock drug concentration is usually 20 mM in DMSO, the 200 μM drug concentration contains 2% DMSO.
Therefore, diluent made up to 2% DMSO in assay medium (F12K+0.5% fetal bovine serum) is used as diluent for the drug titrations in order to dilute the drug but keep the DMSO concentration constant. Add this diluent to the remaining wells in the column at 60 μl/well. […]
(§4) 1. Thaw plates and harvest with a 96-well plate harvester (Tomtec Harvester 96®) onto filter mats (Wallac; catalogue no. 1205-401); read counts on a Wallac Betaplate™ liquid scintillation counter.
(§5) The IC50 values were measured for several of the compounds of the invention.

[3] = target: PDGFr (Homo sapiens, UniProt P09619); test: PDGF-R ELISA; type: cell-based; parameters: cells (U1242, obtained from Joseph Schlessinger, NYU); endogenous in cells; host or cells: U1242; settings: read-out: PDGFR IC50; Table 2
Experimental: All cell culture media, glutamine, and fetal bovine serum can be purchased from Gibco Life Technologies (Grand Island, N.Y.) unless otherwise specified. […] All cell lines are routinely subcultured twice a week and are negative for mycoplasma as determined by the Mycotect method (Gibco).
For ELISA assays, cells (U1242, obtained from Joseph Schlessinger, NYU) are grown to 80-90% confluency in growth medium (MEM with 10% FBS, NEAA, 1 mM NaPyr and 2 mM GLN) and seeded in 96-well tissue culture plates in 0.5% serum at 25,000 to 30,000 cells per well. After overnight incubation in 0.5% serum-containing medium, cells are changed to serum-free medium and treated with test compound for 2 hr in a 5% CO2, 37° C. incubator. […] Lysates are incubated with shaking for 1 hour at room temperature. The plates are washed with TBST four times and then incubated with polyclonal anti-phosphotyrosine antibody at room temperature for 30 minutes. Excess anti-phosphotyrosine antibody is removed by rinsing the plate with TBST four times. Goat anti-rabbit IgG antibody is added to the ELISA plate for 30 min at room temperature followed by rinsing with TBST four more times. […] Absorbance at 410 nm with a reference wavelength of 630 nm is recorded about 15 to 30 min after ABTS addition.

[4] = target: T1, src protein kinase (Gallus gallus, UniProt P00523); test: Biochemical src assay - ELISA; settings: Table 2
T1 construct: made in house; host or cells: Schizosaccharomyces pombe (yeast transformed with src, lysate)
Experimental: This assay is used to determine src protein kinase activity measuring phosphorylation of a biotinylated peptide as the readout.
h. […] S. Pombe strain SP200 (h-s leul.32 ura4 ade210) is grown as described and transformations are pRSP expression plasmids are done by the lithium acetate method (Superti-Furga, supra). Cells are grown in the presence of 1 μM thiamine to repress expression from the nmtl promoter or in the absence of thiamine to induce expression.
2. Add 0.08 mL Kinase Reaction Mixture per well (containing 10 μL of 10×Kinase Buffer and 10 μM (final concentration) biotin-[…] per well diluted in water.
(§6) 3. Add 10 μL of compound diluted in water containing 10% DMSO and pre-incubate for 15 minutes at room temperature.
4. Start kinase reaction by adding 10 μL/well of 0.05 mM ATP in water (5 μM ATP final).
as §5

[5] = target: T2, FLK-1 receptor (Mus musculus, UniProt P35918); test: FLK-1 ELISA (kinase activity of the FLK-1 receptor in engineered cells); type: cell-based; settings: Table 2; read-out: FLK-1R IC50
T2 construct: expressed in transfected cells; host or cells: NIH3T3 C7#3 cells

[6] = target: EGFr (Homo sapiens, UniProt P00533); test: EGF receptor ELISA; type: cell-based; parameters: expressed in transfected cells; host or cells: NIH 3T3/C7; settings: Table 2; read-out: EGFR IC50
Experimental: EGF Receptor kinase activity in cells genetically engineered to express human EGF-R can be measured as described below:
1. Check seeded cells for contamination using an inverted microscope. Dilute drug stock (10 mg/mL in DMSO) 1:10 in DMEM medium, then transfer 5 μL to a test well for a final drug dilution of 1:200 and a final DMSO concentration of 1%. Control wells receive DMSO alone. Incubate in 5% CO2 at 37° C. for one hour.
5. After two hours incubation with drug, add prepared EGF ligand to cells, 10 μL per well, to yield a final concentration of 25 nM. Control wells receive DMEM alone. Incubate, shaking, at room temperature, for 5 minutes.
12. The maximal phosphotyrosine signal is determined by subtracting the value of the negative controls from the positive controls. The percent inhibition of phosphotyrosine content for extract-containing wells is then calculated, after subtraction of the negative controls.

[7] = tested on: HUV-EC-C cells; test: HUV-EC-C assay, aFGF (3H-thymidine incorporation); type: cell-based, human; settings: Table 2, aFGF-stimulated HUV-EC-C, read-out: HUV-EC-C ATCC aFGF IC50
Experimental: as §1, §2, §3
Therefore, diluent made up to 2% DMSO in assay medium (F12K+0.5% fetal bovine serum) is used as diluent for the drug titrations in order to dilute the drug but keep the DMSO concentration constant. Add this diluent to the remaining wells in the column at 60 μl/well. Take 60 μl from the 120 μl of 200 μM drug dilution in the top well of the column and mix with the 60 μl in the second well of the column. Take 60 μl from this well and mix with the 60 μl in the third well of the column, and so on until two-fold titrations are completed. When the next-to-the-last well is mixed, take 60 μl of the 120 μl in this well and discard it. Leave the last well with 60 μl of DMSO/media diluent as a non-drug-containing control. Make 9 columns of titrated drug, enough for triplicate wells each for 1) VEGF (obtained from Pepro Tech Inc., catalogue no. 100-200, 2) endothelial cell growth factor (ECGF) (also known as acidic fibroblast growth factor, or aFGF) (obtained from Boehringer Mannheim Biochemica, catalogue no. 1439 600); or, 3) human PDGF B/B (1276-956, Boehringer Mannheim, Germany) and assay media control. ECGF comes as a preparation with sodium heparin.
2. Transfer 50 μl/well of the drug dilutions to the 96-well assay plates containing the 0.8-1.0×10^4 cells/100 μl/well of the HUV-EC-C cells from day 0 and incubate ~2 h at 37° C., 5% CO2.
3. In triplicate, add 50 μl/well of […] VEGF, 20 ng/mL ECGF, or media control to each drug condition. As with the drugs, the growth factor concentrations are 4×the desired final concentration. Use the assay media from day 0 step 2 to make the concentrations of growth factors. Incubate approximately 24 hours at 37° C., 5% CO2. Each well will have 50 μl drug dilution, 50 μl growth factor or media, and 100 ul cells, =200 ul/well total. Thus the 4×concentrations of drugs and growth factors become 1× once everything has been added to the wells.
1. Add ^3 H-thymidine (Amersham; catalogue no. TRK-686) at 1 μCi/well (10 μl/well of 100 μCi/mL solution made up in RPMI media+10% heat-inactivated fetal bovine serum) and incubate ~24 h at 37° C., 5% CO2. RPMI is obtained from Gibco BRL, catalogue no. 11875-051.
as §4, §5

[8] = target: T3, lck protein kinase (Homo sapiens, UniProt P06239); test: Biochemical lck assay - ELISA; settings: Table 2
T3 construct: made in house; host or cells: Schizosaccharomyces pombe strain SP200 (lysate)
Experimental: This assay is used to determine lck protein kinase activities measuring phosphorylation of GST-.zeta. as the readout.
b. Yeast transformed with lck. […] S. Pombe strain SP200 (h-s leul.32 ura4 ade210) is grown as described and transformations with pRSP expression plasmids are done by the lithium acetate method (Superti-Furga, supra). Cells are grown in the presence of 1 μM thiamine to induce expression.
2. Add 0.08 mL Kinase Reaction Mixture per well (containing 10 μl of 10×Kinase Buffer and 2 μg GST-.zeta. per well diluted with water).
as §6
4. Start kinase reaction by adding 10 μL/well of 0.1 mM ATP in water (10 μM ATP final).
The IC50 values were measured for one of the compounds of the invention.

T3 sequence (P06239 whole entry): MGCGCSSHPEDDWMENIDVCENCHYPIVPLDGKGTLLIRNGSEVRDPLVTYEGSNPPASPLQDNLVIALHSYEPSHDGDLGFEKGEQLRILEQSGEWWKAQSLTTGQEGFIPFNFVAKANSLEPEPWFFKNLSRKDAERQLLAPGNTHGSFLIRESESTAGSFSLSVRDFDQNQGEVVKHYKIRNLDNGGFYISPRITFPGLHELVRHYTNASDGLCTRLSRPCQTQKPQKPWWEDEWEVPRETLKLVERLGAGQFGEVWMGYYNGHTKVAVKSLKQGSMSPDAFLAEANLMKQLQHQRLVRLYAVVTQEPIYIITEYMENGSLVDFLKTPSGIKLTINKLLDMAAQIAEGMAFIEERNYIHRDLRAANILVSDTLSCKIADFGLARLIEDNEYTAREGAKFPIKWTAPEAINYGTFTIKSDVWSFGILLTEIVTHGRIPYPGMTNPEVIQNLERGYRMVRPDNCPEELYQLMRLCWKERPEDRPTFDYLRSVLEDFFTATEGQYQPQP
Sequence of FAK (Q05397 whole entry, species assumed): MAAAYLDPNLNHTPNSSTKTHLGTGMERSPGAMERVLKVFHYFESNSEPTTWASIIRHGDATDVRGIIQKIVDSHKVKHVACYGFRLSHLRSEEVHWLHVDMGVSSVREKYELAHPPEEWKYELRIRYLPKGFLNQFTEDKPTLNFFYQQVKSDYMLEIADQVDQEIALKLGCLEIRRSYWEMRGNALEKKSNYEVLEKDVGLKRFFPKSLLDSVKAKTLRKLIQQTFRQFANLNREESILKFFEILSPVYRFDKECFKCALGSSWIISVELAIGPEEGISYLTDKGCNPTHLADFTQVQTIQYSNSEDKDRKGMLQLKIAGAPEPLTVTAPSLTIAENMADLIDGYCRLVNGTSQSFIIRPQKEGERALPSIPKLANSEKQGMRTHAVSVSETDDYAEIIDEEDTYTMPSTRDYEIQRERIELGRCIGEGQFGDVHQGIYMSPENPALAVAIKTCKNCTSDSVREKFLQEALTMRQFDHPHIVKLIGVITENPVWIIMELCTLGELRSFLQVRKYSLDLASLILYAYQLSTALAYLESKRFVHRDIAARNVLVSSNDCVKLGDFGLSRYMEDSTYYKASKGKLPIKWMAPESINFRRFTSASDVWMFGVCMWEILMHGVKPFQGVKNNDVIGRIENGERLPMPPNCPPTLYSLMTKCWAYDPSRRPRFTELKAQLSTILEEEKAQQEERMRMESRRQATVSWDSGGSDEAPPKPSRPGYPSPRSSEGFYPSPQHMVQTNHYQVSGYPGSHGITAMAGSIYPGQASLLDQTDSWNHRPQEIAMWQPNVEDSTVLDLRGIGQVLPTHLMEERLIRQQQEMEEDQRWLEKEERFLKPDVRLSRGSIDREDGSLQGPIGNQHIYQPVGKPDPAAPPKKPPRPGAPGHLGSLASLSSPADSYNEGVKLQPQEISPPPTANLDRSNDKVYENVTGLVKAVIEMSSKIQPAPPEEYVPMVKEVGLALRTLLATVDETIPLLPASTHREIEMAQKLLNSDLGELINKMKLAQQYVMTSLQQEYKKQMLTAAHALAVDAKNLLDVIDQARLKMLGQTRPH
Sequence of PDGFr (P09619 33-1106): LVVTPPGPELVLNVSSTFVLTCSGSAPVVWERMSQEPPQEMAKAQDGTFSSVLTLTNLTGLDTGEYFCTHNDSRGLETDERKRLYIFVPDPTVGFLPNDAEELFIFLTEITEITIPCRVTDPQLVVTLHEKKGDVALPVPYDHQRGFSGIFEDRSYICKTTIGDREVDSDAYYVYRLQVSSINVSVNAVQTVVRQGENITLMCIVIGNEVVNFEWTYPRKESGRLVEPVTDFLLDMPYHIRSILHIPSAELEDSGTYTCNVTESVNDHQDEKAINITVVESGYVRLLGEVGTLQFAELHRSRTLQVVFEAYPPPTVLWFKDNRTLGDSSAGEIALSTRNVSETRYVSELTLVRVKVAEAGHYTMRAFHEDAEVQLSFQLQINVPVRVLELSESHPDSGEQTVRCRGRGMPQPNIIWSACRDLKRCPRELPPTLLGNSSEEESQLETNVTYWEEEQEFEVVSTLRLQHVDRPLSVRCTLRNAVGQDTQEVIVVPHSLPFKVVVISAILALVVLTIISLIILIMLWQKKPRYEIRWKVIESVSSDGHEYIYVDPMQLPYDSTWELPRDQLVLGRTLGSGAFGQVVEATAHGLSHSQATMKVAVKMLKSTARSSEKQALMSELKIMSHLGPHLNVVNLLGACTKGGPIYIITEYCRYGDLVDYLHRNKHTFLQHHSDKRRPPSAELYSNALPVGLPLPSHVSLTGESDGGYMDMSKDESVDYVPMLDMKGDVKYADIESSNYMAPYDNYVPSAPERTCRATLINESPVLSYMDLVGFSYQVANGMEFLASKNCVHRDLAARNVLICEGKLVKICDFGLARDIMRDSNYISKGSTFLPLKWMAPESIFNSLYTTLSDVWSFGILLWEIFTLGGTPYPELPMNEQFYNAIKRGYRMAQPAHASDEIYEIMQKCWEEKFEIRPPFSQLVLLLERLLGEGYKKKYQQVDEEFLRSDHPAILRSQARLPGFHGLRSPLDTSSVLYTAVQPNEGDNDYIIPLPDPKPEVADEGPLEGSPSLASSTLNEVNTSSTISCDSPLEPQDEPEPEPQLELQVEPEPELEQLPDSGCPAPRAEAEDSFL
T2 sequence (P35918 20-1345): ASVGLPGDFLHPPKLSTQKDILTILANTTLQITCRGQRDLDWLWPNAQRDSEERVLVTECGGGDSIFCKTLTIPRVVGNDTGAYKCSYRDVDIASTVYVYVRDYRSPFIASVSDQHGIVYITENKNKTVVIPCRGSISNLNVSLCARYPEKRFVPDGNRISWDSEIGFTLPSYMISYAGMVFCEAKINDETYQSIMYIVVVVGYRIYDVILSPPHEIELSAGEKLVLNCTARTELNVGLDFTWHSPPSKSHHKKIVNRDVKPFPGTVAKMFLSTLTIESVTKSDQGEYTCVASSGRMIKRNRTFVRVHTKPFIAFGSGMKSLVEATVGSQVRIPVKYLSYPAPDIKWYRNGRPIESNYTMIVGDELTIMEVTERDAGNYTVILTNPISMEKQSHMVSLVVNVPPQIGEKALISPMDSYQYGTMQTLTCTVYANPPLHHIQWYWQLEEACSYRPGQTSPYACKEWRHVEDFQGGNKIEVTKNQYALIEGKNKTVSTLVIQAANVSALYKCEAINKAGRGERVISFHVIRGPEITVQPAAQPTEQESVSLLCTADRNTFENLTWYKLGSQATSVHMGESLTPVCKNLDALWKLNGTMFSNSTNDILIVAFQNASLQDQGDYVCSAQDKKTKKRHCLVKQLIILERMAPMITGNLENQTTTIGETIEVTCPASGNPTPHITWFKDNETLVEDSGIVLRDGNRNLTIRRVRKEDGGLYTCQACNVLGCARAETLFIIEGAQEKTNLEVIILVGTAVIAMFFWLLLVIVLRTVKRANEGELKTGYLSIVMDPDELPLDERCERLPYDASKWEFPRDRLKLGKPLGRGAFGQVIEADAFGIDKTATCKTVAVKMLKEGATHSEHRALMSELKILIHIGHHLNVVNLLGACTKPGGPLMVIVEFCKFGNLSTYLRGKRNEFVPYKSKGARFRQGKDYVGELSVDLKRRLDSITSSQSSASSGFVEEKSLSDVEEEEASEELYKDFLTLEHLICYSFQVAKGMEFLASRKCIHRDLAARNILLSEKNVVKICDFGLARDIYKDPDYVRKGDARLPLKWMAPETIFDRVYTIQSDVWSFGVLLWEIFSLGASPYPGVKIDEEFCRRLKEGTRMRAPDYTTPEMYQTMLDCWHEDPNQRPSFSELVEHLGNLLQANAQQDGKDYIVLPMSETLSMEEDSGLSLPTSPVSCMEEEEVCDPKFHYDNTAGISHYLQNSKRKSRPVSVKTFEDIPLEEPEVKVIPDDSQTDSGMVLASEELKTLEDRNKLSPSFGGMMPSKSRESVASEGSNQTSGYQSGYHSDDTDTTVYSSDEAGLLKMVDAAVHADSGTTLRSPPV

With NS(=O)(=O)c1ccc2c(c1)C(=Cc1cc3c([nH]1)CCCC3)C(=O)N2 the IC50 [1] was over 10 µM, the IC50 ([2]; Homo sapiens) was 650 nM and the IC50 [2] was 1070 nM. It also gave an IC50 [3] of 1000 nM, an IC50 [4] of 800 nM and an IC50 [5] of over 100 µM. For the same compound, the IC50 [6] was over 100 µM, the IC50 ([7]; Homo sapiens) was 2400 nM and the IC50 [7] was 3300 nM. It also gave an IC50 [8] of 700 nM.
